From patent publication US20170240566A1, “AMINO-SUBSTITUTED ANNULATED PYRIMIDINES AND USE THEREOF” (Bayer Pharma Aktiengesellschaft, priority 2014, published 2017)
≈ marks a conversion by molar mass, not a printed value.

How the values were obtained:
[1] = biological target: T1, human phosphodiesterase 5 (PDE 5) (Homo sapiens, UniProt O76074); test: Inhibition of human phosphodiesterase 5 (PDE 5); assay type: biochemical; settings: PDE 5 preparation from human platelets; in some cases means of individual determinations
T1 construct: PDE 5 preparations are obtained from human platelets by disruption; from tissue; host or cells: human platelets
Description: B-3. Inhibition of human phosphodiesterase 5 (PDE 5)
PDE 5 preparations are obtained from human platelets by disruption (Microfluidizer®, 800 bar, 3 passes), followed by centrifugation (75 000 g, 60 min, 4° C.) and ion exchange chromatography of the supernatant on a Mono Q 10/10 column (linear sodium chloride gradient, elution with a 0.2-0.3M solution of sodium chloride in buffer (20 mM Hepes pH 7.2, 2 mM magnesium chloride). Fractions having PDE 5 activity are combined (PDE 5 preparation) and stored at −80° C.
To determine their in vitro action on human PDE 5, the test substances are dissolved in 100% DMSO and serially diluted. Typically, dilution series (1:3) from 200 μM to 0.091 μM are prepared (resulting final concentrations in the test: 4 μM to 0.0018 μM). In each case 2 μl of the diluted substance solutions are placed into the wells of microtitre plates (Isoplate-96/200W; Perkin Elmer). Subsequently, 50 μl of a dilution of the above-described PDE 5 preparation are added. The dilution of the PDE 5 preparation is chosen such that during the later incubation less than 70% of the substrate are converted (typical dilution: 1:100; dilution buffer: 50 mM tris/hydrochloric acid pH 7.5, 8.3 mM magnesium chloride, 1.7 mM EDTA, 0.2% BSA). The substrate, [8-^3H] cyclic guanosine-3′,5′-monophosphate (1 μCi/μl; Perkin Elmer), is diluted 1:2000 with assay buffer (50 mM tris/hydrochloric acid pH 7.5, 8.3 mM magnesium chloride, 1.7 mM EDTA) to a concentration of 0.0005 μμCi/μl. By addition of 50 μl (0.025 μCi) of the diluted substrate, the enzyme reaction is finally started. The test mixtures are incubated at room temperature for 60 min and the reaction is stopped by adding 25 μl of a suspension of 18 mg/ml yttrium scintillation proximity beads in water (phosphodiesterase beads for SPA assays, RPNQ 0150, Perkin Elmer). The microtitre plates are sealed with a film and left to stand at room temperature for 60 min. Subsequently, the plates are analysed for 30 s per well in a Microbeta scintillation counter (Perkin Elmer). IC50 values are determined using the graphic plot of the substance concentration against percentage PDE 5 inhibition.

[2] = test system: recombinant guanylate cyclase reporter cell line; test: Effect on a recombinant guanylate cyclase reporter cell line; assay type: cell-based; settings: minimum effective concentration; in some cases means of individual determinations; read-out: MEC
Description: B-2. Effect on a Recombinant Guanylate Cyclase Reporter Cell Line
The cellular activity of the compounds of the invention is determined using a recombinant guanylate cyclase reporter cell line, as described in F. Wunder et al., Anal. Biochem. 339, 104-112 (2005). Representative values (MEC=minimum effective concentration) for the compounds of the invention are shown in the table below (Table 1; in some cases as means of individual determinations): […]

[3] = Solubility of substances in buffer pH 6.5; assay type: physicochemical; settings: aqueous buffer, kinetic from dmso stock, PBS buffer pH 6.5, room temperature
Description: B-10. Determination of the Solubility of Substances in Buffer pH 6.5
40 μl of DMSO are added to 2 mg of a test substance [50 g/l]. 10 μl of this solution are removed and introduced into 990 μl of PBS buffer pH 6.5 (c=500 μg/ml). This solution/suspension is shaken at room temperature for 24 h. After 30 min of ultracentrifugation at 114 000 g, the supernatant is removed, diluted with ACN/water 8:2 and analyzed by LC-MSMS.
For calibration, likewise 10 pi are removed from the DMSO stock solution and introduced into 823 μl of DMSO (c=600 μg/ml). Quantification takes place using a five-point calibration curve.

`CC1(C(F)(F)F)C(=O)Nc2nc(-c3nn(Cc4ncccc4F)c4ncc(F)cc34)nc(NCC(N)(CF)CF)c21` (single isomer, unassigned; ent-4) [Example 20, ent-4-{[2-Amino-3-fluoro-2-(fluoromethyl)propyl]amino}-2-{5-fluoro-1-[(3-fluoropyridin-2-yl)methyl]-1H-pyrazolo[3,4-b]pyridin-3-yl}-5-methyl-5-(trifluoromethyl)-5,7-dihydro-6H-pyrrolo[2,3-d]pyrimidin-6-one (Enantiomer B)] gave an IC50 [1] of 0.12 µM and a minimal effective concentration [2] of 0.65 µM.
`Cc1nc2c(cc1F)c(-c1nc(NCC(N)(CF)CF)c3c(n1)NC(=O)C3(C)C)nn2Cc1cccc(F)c1F` [Example 1, 4-{[2-Amino-3-fluoro-2-(fluoromethyl)propyl]amino}-2[1-(2,3-difluorobenzyl)-5-fluoro-6-methyl-1H-pyrazolo[3,4-b]pyridin-3-yl]-5,5-dimethyl-5,7-dihydro-6H-pyrrolo[2,3-d]pyrimidin-6-one] gave a solubility at 24 h [3] of 7.6 µg/mL (≈ 13.6 µM), an IC50 [1] of 0.052 µM and a minimal effective concentration [2] of 0.3 µM.
With `Cc1nc2c(cc1F)c(-c1nc(NCC(N)(CF)CF)c3c(n1)NC(=O)C3(C)C)nn2Cc1ccccc1F` [Example 2, 4-{[2-Amino-3-fluoro-2-(fluoromethyl)propyl]amino}-2-[5-fluoro-1-(2-fluorobenzyl)-6-methyl-1H-pyrazolo[3,4-b]pyridin-3-yl]-5,5-dimethyl-5,7-dihydro-6H-pyrrolo[2,3-d]pyrimidin-6-one] the solubility at 24 h [3] was 5.1 µg/mL (≈ 9.4 µM), the IC50 [1] was 0.16 µM and the minimal effective concentration [2] was 0.1 µM.
`Cc1nc2c(cc1F)c(-c1nc(NCC(N)(CF)CF)c3c(n1)NC(=O)C3(C)C)nn2Cc1c(F)ccc(F)c1F` [Example 3, 4-{[2-Amino-3-fluoro-2-(fluoromethyl)propyl]amino}-2-[5-fluoro-6-methyl-1-(2,3,6-trifluorobenzyl)-1H-pyrazolo[3,4-b]pyridin-3-yl]-5,5-dimethyl-5,7-dihydro-6H-pyrrolo[2,3-d]pyrimidin-6-one] showed an IC50 [1] of 0.194 µM and a minimal effective concentration [2] of 0.03 µM.
Work on `Cc1nc2c(cc1F)c(-c1nc(NCC(N)(CF)CF)c3c(n1)NC(=O)C3(C)C)nn2Cc1ncccc1F` [Example 4, 4-{[2-Amino-3-fluoro-2-(fluoromethyl)propyl]amino}-2-{5-fluoro-1-[(3-fluoropyridin-2-yl)methyl]-6-methyl-1H-pyrazolo[3,4-b]pyridin-3-yl}-5,5-dimethyl-5,7-dihydro-6H-pyrrolo[2,3-d]pyrimidin-6-one] yielded a solubility at 24 h [3] of 260 µg/mL (≈ 479 µM), an IC50 [1] of 0.18 µM and a minimal effective concentration [2] of 1 µM.
Work on `CC1(C)C(=O)Nc2nc(-c3nn(Cc4ncccc4F)c4ncc(F)cc34)nc(NCC(N)(CF)CF)c21` [Example 5, 4-{[2-Amino-3-fluoro-2-(fluoromethyl)propyl]amino}-2-{5-fluoro-1-[(3-fluoropyridin-2-yl)methyl]-1H-pyrazolo[3,4-b]pyridin-3-yl}-5,5-dimethyl-5,7-dihydro-6H-pyrrolo[2,3-d]pyrimidin-6-one] yielded a solubility at 24 h [3] of 278 µg/mL (≈ 526 µM), an IC50 [1] of 0.07 µM and a minimal effective concentration [2] of 1 µM.
